Measured values taken from patent US6579689B2, “Modulation of γ-secretase activity” (Scios Inc., priority 2000, dated 2003).

System: γ-secretase
Assay: Cell-free 0.5% CHAPS solubilized γ-secretase activity, Aβ production (Aβ40 ELISA)
Type: biochemical, monkey
Conditions: for enhancement of γ-secretase activity by other phospholipids, compared with cardiolipin: concentration not given
Procedure: To produce membranes containing high levels of CT99, ˜10^9 CV-1 monkey fibroblast cells were infected with VV99 for 48 hours. After this period, the cells were harvested, washed with saline, and pelleted by low speed centrifugation at 1200 rpm for 10 minutes at 4° C. The cell pellet was resuspended in 25 mls 0.25 M sucrose, 10 mM Tris-HCl pH 7.5, 1 mM EDTA then homogenized with a Dounce homogenizer using a tight fitting pestle. The sample is centrifuged at 2300 rpm for 10 minutes at 4° C. This homogenization step was repeated.
The resulting pellets containing nuclei and large debris were discarded and the post-nuclear supernatants were combined. The supernatant fraction was centrifuged at 100,000×g for 30-60 minutes at 4° C. to collect membranes. The membranes were washed in buffer containing 0.2% saponin, 10 mM Tris-HCl pH 7.5, 1 mM EDTA to remove contaminating proteolytic activity, followed by centrifugation at 100,000×g for 30 minutes at 4° C. This step was repeated. Membranes at this stage can be used directly for assaying γ-secretase activity, or may be further treated to provide solubilized γ-secretase activity.
The saponin-washed membrane fraction was next solubilized with 0.5% CHAPS prepared in 10 mM Tris-HCl pH 7.5 with 5 mM EDTA. Aliquots of membranes containing γ-secretase activity were treated with detergent at 0° C. for 1 hour after which the treated samples were centrifuged at 100,000×g for 1 hour at 4° C. The resulting supernatants (soluble fractions) were assayed for Aβ production. 0.5% CHAPS was successful in solubilizing and preserving the γ-secretase activity.
To produce Aβ protein in vitro, an aliquot of the saponin-washed fraction or an aliquot of the 0.5% CHAPS treated soluble fraction was first adjusted to pH 7.0 by making a 1:10 dilution of the fraction with 1 M Tris-HCl pH 7.0 for a final concentration of 100mM Tris-HC1. The neutralized samples were incubated at 37° C. for various lengths of time, typically ranging from 0 (control) to 24 hours. After incubation, the samples were assayed for Aβ production as follows.
Wells of a 96-microtiter plate were coated overnight at 4° C. with 100 μl/well of a 4 μg/ml solution of purified monoclonal antibody 1702.1 diluted in phosphate buffered saline (PBS). The 1702.1 monoclonal antibody specifically recognizes the Aβ40 isoform. […] The plate is washed three times with PBS 0.05% Tween 20 and the amount of 1101.1 second antibody bound to the well is detected with HRP-conjugated Streptavidin (Zymed) using a tetramethylbenzidine substrate (Sigma). The resulting colormetric reaction is quantified by reading the plate at OD^450nm. The amount of Aβ40 present in the test sample is calculated from known amounts of synthetic Aβ40 peptide standard run in the ELISA. […]

## phosphotidylserine
  enhancement of γ-secretase activity by other phospholipids, compared with cardiolipin: comparable results

## cardiolipin
1 μM cardiolipin, FIG. 4
  enhancement of γ-secretase activity (Aβ production) by added phospholipid: nearly equivalent to the activity originally present in the membranes prior to solubilization

## phosphotidylcholine
  enhancement of γ-secretase activity by other phospholipids, compared with cardiolipin: comparable results

## CCCCCCCCCCCCCCCC(=O)OC[C@H](COP(=O)([O-])OCC[N+](C)(C)C)OC(=O)CCCCCCCCCCCCCCC [1,2 dipalmitoyl-5-glycerol-3-phosphocholine]
  enhancement of γ-secretase activity by other phospholipids, compared with cardiolipin: comparable results
